ChEMBL document CHEMBL4342419 (Eur J Med Chem, 2019)

Columns and labels:
[1] = target: T1, 5-hydroxytryptamine receptor 1A (Homo sapiens, UniProt P08908); experiment: Antagonist activity at 5-HT1A receptor (unknown origin)
T1 sequence (P08908 whole entry): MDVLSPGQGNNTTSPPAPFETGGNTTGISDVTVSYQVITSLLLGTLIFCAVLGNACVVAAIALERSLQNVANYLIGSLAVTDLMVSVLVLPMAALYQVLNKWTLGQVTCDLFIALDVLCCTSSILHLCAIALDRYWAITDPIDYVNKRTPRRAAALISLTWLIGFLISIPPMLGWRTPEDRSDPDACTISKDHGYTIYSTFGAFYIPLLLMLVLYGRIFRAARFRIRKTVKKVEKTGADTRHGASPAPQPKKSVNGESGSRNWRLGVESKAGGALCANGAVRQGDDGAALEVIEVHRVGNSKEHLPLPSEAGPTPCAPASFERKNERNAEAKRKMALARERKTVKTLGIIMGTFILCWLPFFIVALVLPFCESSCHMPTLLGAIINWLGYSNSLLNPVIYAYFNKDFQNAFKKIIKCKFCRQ

[2] = target: T2, 5-hydroxytryptamine receptor 7 (Homo sapiens, UniProt P34969); experiment: Antagonist activity at 5-HT7 receptor (unknown origin)
T2 sequence (P34969 whole entry): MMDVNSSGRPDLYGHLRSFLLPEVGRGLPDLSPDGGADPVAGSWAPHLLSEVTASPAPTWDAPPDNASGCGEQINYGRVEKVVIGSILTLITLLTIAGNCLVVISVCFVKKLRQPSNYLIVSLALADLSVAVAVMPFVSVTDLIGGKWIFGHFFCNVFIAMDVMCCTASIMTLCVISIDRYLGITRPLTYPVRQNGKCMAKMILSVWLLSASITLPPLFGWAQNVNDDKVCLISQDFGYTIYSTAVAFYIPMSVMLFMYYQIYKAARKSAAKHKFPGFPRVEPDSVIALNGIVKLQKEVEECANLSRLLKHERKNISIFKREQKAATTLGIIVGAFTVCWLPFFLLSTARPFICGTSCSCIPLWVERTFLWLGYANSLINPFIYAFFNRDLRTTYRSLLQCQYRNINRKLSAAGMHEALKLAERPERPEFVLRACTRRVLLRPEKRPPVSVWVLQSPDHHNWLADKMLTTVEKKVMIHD

[3] = target: 5-hydroxytryptamine receptor 7 (Rattus norvegicus, UniProt P32305); experiment: Displacement of [3H]5-CT from recombinant rat 5-HT7 receptor expressed in HEK293 cells; assay type: cell-based
5-hydroxytryptamine receptor 7 (Rattus norvegicus, UniProt P32305), sequence (P32305 whole entry): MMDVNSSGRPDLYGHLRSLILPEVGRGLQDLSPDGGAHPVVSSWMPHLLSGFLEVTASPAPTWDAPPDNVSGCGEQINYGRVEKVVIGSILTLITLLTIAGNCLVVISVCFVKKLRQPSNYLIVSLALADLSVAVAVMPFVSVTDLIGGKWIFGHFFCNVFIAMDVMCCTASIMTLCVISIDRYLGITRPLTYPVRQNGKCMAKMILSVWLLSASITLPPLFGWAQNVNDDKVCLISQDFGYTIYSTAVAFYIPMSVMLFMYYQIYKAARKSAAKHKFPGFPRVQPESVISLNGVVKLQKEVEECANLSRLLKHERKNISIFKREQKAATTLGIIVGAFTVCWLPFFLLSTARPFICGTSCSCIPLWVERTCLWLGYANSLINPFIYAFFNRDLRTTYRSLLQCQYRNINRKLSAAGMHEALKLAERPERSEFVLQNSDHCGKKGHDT

[4] = target: T2, 5-hydroxytryptamine receptor 7; experiment: biochemical; assay type: cell-based

| SMILES | Ki [1] [nM] | other results |
| --- | --- | --- |
| COc1cccc(OC)c1-c1cccc(CCN(C)C)c1 | 4830 | – |
| Cc1nn(C)c(C)c1-c1ccc(O)c(CCN(C)C)c1 | > 10000 | – |
| O=S(=O)(c1ccc2cc[nH]c2c1)N1CCC[C@H]1CCN1CCC(Oc2ccc(Cl)cc2)CC1 | 562 | Ki [2]: 1.99 nM |
| O=C1Cc2ccccc2N1CC/C=C/CCN1CCc2ccccc2C1 | > 1000 | – |
| CC(Nc1nc(N)nc(NCCOc2ccc(F)cc2)n1)c1ccc(F)cc1 (stereo not drawn) | > 100 | – |
| COc1ccccc1N1CCN(Cc2cn(-c3cccc4ccccc34)c3ccccc23)CC1 | 700 | – |
| COc1ccc(S(=O)(=O)NCCCN2CCN(c3ccccc3OC)CC2)cc1 | 272 | – |
| Cc1cccc(S(=O)(=O)N(C)[C@H](C)CCN2CCC(C)CC2)c1 [SB-258719] | > 3000 | – |
| CCC1(CCCCN2CCN(c3ccc(Cl)cc3)CC2)C(=O)Nc2cc(F)ccc21 (stereo not drawn) | 1610 | – |
| CNC(=O)Cn1c2c(c3ccccc31)CN(CCCCC13CCCc4cccc(c41)NC3=O)CC2 (stereo not drawn) | 128 | Ki [2]: 3.54 nM |
| CCOc1ccccc1N1CCN(CCCCC(=O)NCc2nc3cc(F)ccc3c(=O)n2-c2ccccc2)CC1 | – | IC50 [1]: 500 nM |
| Clc1ccc(-c2nn(Cc3ccccc3)c3c2CCNCC3)cc1 [JNJ-18038683 FREE BASE] | 6.5 | Ki [3]: 316 nM |
| CCN(CC)C(=O)[C@@H]1C=C2c3cccc4[nH]c(Br)c(c34)C[C@H]2N(C)C1 | – | Ki [4]: 31.6 nM |
| CC(Nc1nc(N)nc(NCCOc2ccccc2)n1)c1ccccc1 (stereo not drawn) | > 100 | Ki [2]: 3 nM |
